Test: Storage of the aqueous ophthalmic composition in polyethylene bottles: concentration of active ingredient over time
Format: physicochemical
Conditions: for concentration upon storage at low temperature / concentration upon storage at room temperature: polyethylene bottles; for concentration upon storage at low temperature: low (2-8° C.) temperature
Experimental: The ophthalmic products XALATAN® (comprising approximately 50 μg/ml latanoprost) and XALCOM® (comprising approximately 50 μg/ml latanoprost and 5 mg/ml timolol) are packaged in bottles. The bottle is typically made of clear low-density polyethylene with a clear low-density polyethylene dropper tip, a high-density polyethylene screw cap, and a clear low-density polyethylene overcap. Unopened bottles are stored at 2-8° C.
While storage at recommended temperature has proven to be an effective way of maintaining product stability of the ophthalmic products, it would be desirable to store such ophthalmic products at room temperature for prolonged periods without adversely affecting the concentration(s) of the active ingredient(s).
Following extensive research, a better understanding of the above-mentioned phenomenon has now been achieved. When the polyethylene packages are stored, moisture from the composition is lost to the atmosphere. Moreover, prostaglandin itself is absorbed into or adsorbed to the bottle resin and thus removed from the composition. […] Thus, the concentration of timolol increases over time and may have undesired systemic effects upon administration to the eye. This net effect of this phenomenon is more pronounced at room temperature than at low temperature.

SMILES: CC(C)(C)NC[C@H](O)COc1nsnc1N1CCOCC1 [timolol, (S)-1-[(1,1-dimethylethyl)amino]-3-[ [4-(4-morpholinyl)-1,2,5-thiadiazol-3-yl]oxy]-2-propanol]
- concentration upon storage at low temperature: maintained at a nearly constant level
- concentration upon storage at room temperature: increases gradually over time
- loss to the atmosphere or absorption/adsorption by the package material (polyethylene packages on storage): neither lost to the atmosphere nor absorbed/adsorbed by the package material to any large extent

SMILES: CC(C)OC(=O)CCC/C=C\C[C@@H]1[C@@H](CC[C@@H](O)CCc2ccccc2)[C@H](O)C[C@@H]1O [latanoprost]
- concentration upon storage at low temperature: maintained at a nearly constant level
- concentration upon storage at room temperature: maintained at a nearly constant level

Source: US20050048122A1, “Method for stabalizing timolol concentration” (Pharmacia & Upjohn Company, priority 2003, published 2005)
